{"source": "patent US6191290A", "about": "“Taxane derivatives for targeted therapy of cancer” (UAB Research Foundation, priority 2000, dated 2001)", "key": {"[1]": {"assay": "Solubility in aqueous and organic solvents", "format": "physicochemical", "details": "unconjugated peptide", "source_text": "Prior to the biological evaluation of this compound, two key issues needed to be addressed: The overall water solubility and the cell surface receptor binding ability of the conjugate."}, "[2]": {"system": "Burkitts lymphoma xenografts", "details": "nude mice bearing Burkitts lymphoma xenografts; cited from earlier work"}, "[3]": {"details": "clinical trials; cited from earlier work"}, "NCI-H1299 cells": {"system": "NCI-H1299 cells", "assay": "Cytotoxicity assay at day 4 against NCI-H1299 cells, conjugate versus underivatized paclitaxel", "description": "To evaluate the cytotoxic effects of the paclitaxel conjugate, experiments were designed to compare these effects with the underivatized, unconjugated paclitaxel.\nTo evaluate the cytotoxic activity of the conjugate relative to the intact, underivatized paclitaxel on the NCI-H1299 cells, 25 nM and 50 nM samples of paclitaxel and 10 nM and 30 nM solutions of the conjugate were incubated with the cells and the survival was assessed on day 4."}, "[4]": {"system": "G18 human astrocytoma cells", "details": "cited from earlier work"}, "[5]": {"details": "Homo sapiens, NCI-H1299, 96 h, read-out: cytotoxicity (cell destruction)"}, "[6]": {"details": "Homo sapiens, NCI-H1299, 96 h, read-out: growth inhibition / cell destruction"}}}
{"smiles": "CC(C)C[C@H](NC(=O)[C@H](Cc1cnc[nH]1)NC(=O)CNC(=O)[C@@H](NC(=O)[C@H](C)NC(=O)[C@H](Cc1c[nH]c2ccccc12)NC(=O)[C@@H](N)CCC(N)=O)C(C)C)C(N)=O", "note": "[BBN[7-13]]", "values": [{"measurement": "solubility", "setting": "[1]", "result": "soluble only in DMF and alcohols"}]}
{"smiles": "CC(=O)O[C@H]1C(=O)[C@@]2(C)[C@H]([C@H](OC(=O)c3ccccc3)[C@]3(O)C[C@H](OC(=O)[C@H](O)[C@@H](NC(=O)c4ccccc4)c4ccccc4)C(C)=C1C3(C)C)[C@]1(OC(C)=O)CO[C@@H]1C[C@@H]2O", "note": "[paclitaxel]", "values": [{"measurement": "radiosensitizing effect", "setting": "[2]", "result": "radiosensitizing effect"}, {"measurement": "reported side effects", "setting": "[3]", "result": "neutropenia, mucositis, cardiac and neurological toxicities in addition to hypersensitivity"}, {"measurement": "cytotoxicity at 0.01 µM", "setting": "NCI-H1299 cells; [5]", "result": 0, "unit": "%"}, {"measurement": "cytotoxicity at 0.025 µM", "setting": "NCI-H1299 cells; [5]", "result": 20, "unit": "%"}, {"measurement": "inhibition at 0.025 µM", "setting": "NCI-H1299 cells; [6]", "result": 23, "unit": "%"}, {"measurement": "inhibition at 0.05 µM", "setting": "NCI-H1299 cells; [6]", "result": 51, "unit": "%"}, {"measurement": "cytotoxicity (cell destruction)", "setting": "NCI-H1299 cells; human, nci-h1299 cells, 96 h, 0.01 µM", "result": 0, "unit": "%"}, {"measurement": "radiosensitizing effect", "setting": "[4]", "result": "radiosensitizing effect"}]}
